Ends that are not written are not given here.
What was measured:
[1] = system: prostate; experiment: Intraprostatic infusion in rats, histology of prostate gland; format: in vivo, rat; settings: 300 μl of 1 mg/mL in PBS pH 7.4 (1.0 mg/kg), sacrificed after 72 hours
Procedure: Four rats were anesthetized with ether and given NTP peptide #7 by intraprostatic infusion. The injections consisted of 300 μl of NTP peptide #7 1 mg/mL in PBS pH 7.4. (1.0 mg/kg). Controls received injections of PBS alone or no injection. Rats were painlessly sacrificed after 72 hours. Prostate glands were dissected, fixed in 10% buffered formalin for 24 hours, embedded in paraffin, sectioned, and stained with H & E. For each animal the entire prostate gland was embedded and sectioned. All stained sections were examined histologically.
Normal rats were injected in the prostate as in the above Example 2, except they were injected with NTP peptide #17. Rats were painlessly sacrificed after 72 hours and their prostate glands were examined as in Example 2.

[2] = system: muscle tissue, subcutaneous connective tissue, and dermis; format: in vivo, rat; settings: for effect on tissue at sites of injection (histopathology): normal rats, skin, subcutaneous and skeletal muscle injection, in saline, 0.1–1 mg/mL, sacrificed at 24 hours
Procedure: Four normal rats were injected in the skin and subcutaneously, each in four different foci, and in extremity skeletal muscle, each in two different foci, with NTP peptide #7 in saline in quantities of […] at concentrations of 0.1–1 mg/mL delivered from plastic syringes through stainless steel 26 gauge needles.
The individual foci of infiltration were excised, fixed in 10% formalin, embedded in paraffin, and stained and examined by standard histopathological methods.
The controls received saline alone.
Rats were injected in the skin and subcutaneously as in Example 1 above, except they were injected with NTP peptide #14.
Tissues were excised, fixed in 10% formalin, embedded in paraffin, and stained and examined by standard histopathological methods.
The controls were the same as Example 1.

[3] = system: human and non-human origin tumors, including mammary carcinoma, skin carcinoma and papilloma, colon carcinoma, glioma of brain; settings: variety of human and non-human origin tumors in rodent models; cited from earlier work
[4] = system: normal rodent muscle tissue, subcutaneous connective tissue, and dermis; settings: cited from earlier work
[5] = system: glioma and neuroblastoma cell cultures; settings: cited from earlier work

## LSLPSSWDYG [NTP peptide #7]
[1]
  effect on prostate tissue at sites of injection (histology): necrosis of tissue at the injection sites with loss of glandular epithelium, flattening and atrophy
[2]
  effect on tissue at sites of injection (histopathology): necrosis of tissue at the injection sites
[2]; rat, in vivo, sc
  spread of necrosis beyond the site of injection: did not appear to spread far beyond the site of injection

## PASASPVAGITGM [NTP peptide #17, …; AD7c-NTP p31–43]
[1]
  effect on prostate tissue at sites of injection (histology): significant cell loss and atrophy in the prostate

## AD7c-NTP protein: ˜41 kD membrane associated phosphoprotein, a neural thread protein; sequence in FIG. 1
[3]
  causing cell death in vivo in tumors: effective agent for causing cell death
[4]
  causing cell death in vivo in normal tissue: effective agent for causing cell death
[5]
  causing cell death in vitro: effective agent for causing cell death

## WDYRRFIFNFL [NTP peptide #14, …; AD7c-NTP p241–245 + AD7c-NTP p197–202]
[2]
  effect on tissue at sites of injection (histopathology): cell death and necrosis of tissue at the injection sites
